Like-named read-outs stand apart in the source and are kept apart here.
Assays:
Renin = target: T1, Renin (Homo sapiens, UniProt P00797); test: Renin-inhibitory activity, Method I (inhibition of Angiotensin I formation, RIA); format: biochemical; conditions: for inhibition at 1250 µg/mL: 1.25 mg/ml; for inhibition at 313 µg/mL: 0.313 mg/ml; for inhibition at 625 µg/mL: 0.625 mg/ml; for inhibition at 2500 µg/mL: 2.5 mg/ml
T1 sequence (P00797 67-406): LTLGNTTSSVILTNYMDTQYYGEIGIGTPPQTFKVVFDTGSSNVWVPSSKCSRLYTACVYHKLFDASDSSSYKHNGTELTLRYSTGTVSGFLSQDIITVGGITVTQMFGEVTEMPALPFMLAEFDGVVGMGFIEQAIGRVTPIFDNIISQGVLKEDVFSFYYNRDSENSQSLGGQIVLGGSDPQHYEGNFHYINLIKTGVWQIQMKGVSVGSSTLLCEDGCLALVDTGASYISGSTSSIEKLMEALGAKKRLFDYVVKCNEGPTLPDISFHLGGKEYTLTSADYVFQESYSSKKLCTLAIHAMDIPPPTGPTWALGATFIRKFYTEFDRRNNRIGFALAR
Procedure: Renin (see E. Haas et al. Circulation Research, Vol. 19, p. 739, 1966 and Vol. 31, p. 65, 1972) was incubated in Angiotensinogen at 37° C. for 2 to 6 hours. Similarly, renin was incubated under the same conditions in the presence of 0.313 to 2.5 mg/ml. of each of the test compounds listed above. The amount of Angiotensin I was measured by radioimmunoassay (RIA) (E. Haber et al., J. Clin. Endocrinol., Vol. 29, p. 1349, 1969), and made the renin activity.
(§1) The results are shown in Table 1 (the rate of inhibiting the formation of Angiotensin I, as determined by Method I, when the plasma was incubated at 37° C. for 2, 4 and 6 hours respectively), and Table 2 (the rate of inhibiting the formation of Angiotensin I when the plasma was incubated at 37° C. for 4 hours, with the compound concentration of 1.25 mg/ml.)

High renin plasma = target: T2, High renin plasma (Canis lupus familiaris, UniProt Q6DYE7); test: Renin-inhibitory activity, Method II (high renin plasma of dog, inhibition of Angiotensin I formation); format: biochemical; conditions: Table 2; 37°C, 4 hours, 1.25 mg/ml; read-out: Rate of inhibiting the formation of Angiotensin I determined by Method II
T2 construct: High renin plasma prepared by constriction of the renal artery of a dog anesthetized with Nembutal; from tissue; host or cells: plasma of a dog with constricted renal artery
T2 sequence (Q6DYE7 66-403): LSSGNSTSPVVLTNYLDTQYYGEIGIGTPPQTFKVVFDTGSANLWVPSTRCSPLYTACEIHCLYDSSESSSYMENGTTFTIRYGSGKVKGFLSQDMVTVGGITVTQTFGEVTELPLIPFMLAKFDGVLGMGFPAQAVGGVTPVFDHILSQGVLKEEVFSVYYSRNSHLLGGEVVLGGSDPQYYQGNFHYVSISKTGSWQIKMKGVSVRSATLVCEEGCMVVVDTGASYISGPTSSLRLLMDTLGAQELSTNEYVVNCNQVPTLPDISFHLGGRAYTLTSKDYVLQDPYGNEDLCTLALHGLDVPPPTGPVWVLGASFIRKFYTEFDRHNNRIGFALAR
Procedure: High renin plasma prepared by constriction of the renal artery of a dog anesthetized with Nembutal (the plasma which when incubated at 37°40 C. for 6 hours, yields 30 to […]. of Angiotensin I) was incubated at 37° C. for 2 to 6 hours in the same way as in Method I, and also under the same conditions in the presence of 1.25 mg/ml. of each of the test compounds.
as §1

renal hypertensive rats [1] = test: Antihypertensive activity in renal hypertensive rats, i.m. (Table 3); format: in vivo, rat; conditions: 30 mg/kg/day i.m.
Procedure: (§2) An aqueous solution or suspension in peanut oil of each test compound as administered intramuscularly (i.m.) or orally (p.o.) at a dose of 30 to 100 mg/kg (body weight)/day once every morning over the period of 6 to 7 days.
(§3) The blood pressure of each rat was measured daily before and 5 hours after each administration. Furthermore, the blood pressure was measured every morning after drug withdrawal over a period of 3 to 6 days.
(§4) Test compounds (1)-(4) decreased the blood pressure of renal hypertensive rats with a dose of 30 mg/kg/day i.m.. […] The antihypertensive rats with a dose of 100 mg/kg/day p.o..

plasma cholesterol level = test: Cholesterol-lowering activity in rats (modified Greenberg method); format: in vivo, rat; conditions: 100 mg/Kg oral once a day, 5 consecutive days
Procedure: The effect of each of the test compounds on the plasma cholesterol level was examined in rats according to a slightly modified form of the C. M. Greenberg et al. method described in Am. J. Physiol., Vol. 202 (1961), p. 732. Rats were treated once a day with a 100 mg/Kg oral dose for 5 consecutive days instead of 7 days.

renal hypertensive rats [2] = test: Antihypertensive activity in rats, p.o. (Table 4); format: in vivo, rat; conditions: 100 mg/kg/day p.o.
Procedure: as §2, §3, §4

[3] = Table 2, 37°C, 4 hours, read-out: Rate of inhibiting the formation of Angiotensin I determined by Method I
[4] = 1st day, 0 h (immediately before administration)
[5] = 1st day, 5 hours after administration
[6] = 2nd day, 0 h (immediately before administration)
[7] = 2nd day, 5 hours after administration
[8] = 3rd day, 0 h (immediately before administration)
[9] = 3rd day, 5 hours after administration
[10] = 4th day, 0 h (immediately before administration)
[11] = 4th day, 5 hours after administration
[12] = 5th day, 0 h (immediately before administration)
[13] = 5th day, 5 hours after administration
[14] = 6th day, 0 h (immediately before administration)
[15] = 6th day, 5 hours after administration
[16] = 7th day, 0 h (immediately before administration)
[17] = 7th day, 5 hours after administration
[18] = incubating time 2 hours, read-out: Rate of inhibiting the formation of Angiotensin I
[19] = incubating time 4 hours, read-out: Rate of inhibiting the formation of Angiotensin I
[20] = incubating time 6 hours, read-out: Rate of inhibiting the formation of Angiotensin I

Compound: CCC=CCC=CCC=CCCCCCCCC(=O)OCC(COP(=O)(O)OCCN)OC(=O)CCCCCCCCCCCCCCCCC (racemic) [(b), rac-2-Octadecanoyl-3-(octadeca-9,12,15-trienoyl)glycero-1-phosphoryl ethanolamine, reference compound]
- inhibition at 1250 µg/mL (Renin; [3]): < 10%
- inhibition at 1250 µg/mL (High renin plasma): 25%
- Changes of blood pressure after drug withdrawal (renal hypertensive rats [1]; 1st day after withdrawal): -11 mmHg
- Changes of blood pressure (renal hypertensive rats [1]; [4]): 0 mmHg
- Changes of blood pressure (renal hypertensive rats [1]; [5]): -32 mmHg
- Changes of blood pressure after drug withdrawal (renal hypertensive rats [1]; 2nd day after withdrawal): -2 mmHg
- Changes of blood pressure (renal hypertensive rats [1]; [6]): -4 mmHg
- Changes of blood pressure (renal hypertensive rats [1]; [7]): -25 mmHg
- Changes of blood pressure after drug withdrawal (renal hypertensive rats [1]; 3rd day after withdrawal): -1 mmHg
- Changes of blood pressure (renal hypertensive rats [1]; [8]): -8 mmHg
- Changes of blood pressure (renal hypertensive rats [1]; [9]): -34 mmHg
- Changes of blood pressure (renal hypertensive rats [1]; [10]): -7 mmHg
- Changes of blood pressure (renal hypertensive rats [1]; [11]): -39 mmHg
- Changes of blood pressure (renal hypertensive rats [1]; [12]): -8 mmHg
- Changes of blood pressure (renal hypertensive rats [1]; [13]): -44 mmHg
- Changes of blood pressure (renal hypertensive rats [1]; [14]): -10 mmHg
- Changes of blood pressure (renal hypertensive rats [1]; [15]): -47 mmHg
- Cholesterol-lowering activity (plasma cholesterol level): 0%

Compound: CCCCCC=CCC=CCC=CCC=CCCCC(=O)OCC(COP(=O)(O)OCCN)OC(=O)CCCCCCCCCCCCCCCCC (racemic) [(a), rac-2-Octadecanoyl-3-(eicosa-5,8,11,14-tetraenoyl)glycero-1-phosphoryl ethanolamine, reference compound]
- inhibition at 1250 µg/mL (Renin; [3]): < 10%
- inhibition at 1250 µg/mL (High renin plasma): 25%
- Changes of blood pressure after drug withdrawal (renal hypertensive rats [1]; 1st day after withdrawal): -14 mmHg
- Changes of blood pressure (renal hypertensive rats [1]; [4]): 0 mmHg
- Changes of blood pressure (renal hypertensive rats [1]; [5]): -26 mmHg
- Changes of blood pressure after drug withdrawal (renal hypertensive rats [1]; 2nd day after withdrawal): -3 mmHg
- Changes of blood pressure (renal hypertensive rats [1]; [7]): -35 mmHg
- Changes of blood pressure after drug withdrawal (renal hypertensive rats [1]; 3rd day after withdrawal): -1 mmHg
- Changes of blood pressure (renal hypertensive rats [1]; [8]): -5 mmHg
- Changes of blood pressure (renal hypertensive rats [1]; [9]): -29 mmHg
- Changes of blood pressure (renal hypertensive rats [1]; [10]): -5 mmHg
- Changes of blood pressure (renal hypertensive rats [1]; [11]): -34 mmHg
- Changes of blood pressure (renal hypertensive rats [1]; [12]): -13 mmHg
- Changes of blood pressure (renal hypertensive rats [1]; [13]): -33 mmHg
- Changes of blood pressure (renal hypertensive rats [1]; [14]): -13 mmHg
- Changes of blood pressure (renal hypertensive rats [1]; [15]): -43 mmHg
- antihypertensive effect, oral administration (in words) (renal hypertensive rats [2]): did not show such an effect
- Changes of blood pressure (renal hypertensive rats [2]; [4]): 0 mmHg
- Changes of blood pressure (renal hypertensive rats [2]; [5]): +2 mmHg
- Changes of blood pressure (renal hypertensive rats [2]; [6]): +1 mmHg
- Changes of blood pressure (renal hypertensive rats [2]; [7]): +5 mmHg
- Changes of blood pressure (renal hypertensive rats [2]; [8]): +2 mmHg
- Changes of blood pressure (renal hypertensive rats [2]; [9]): -2 mmHg
- Changes of blood pressure (renal hypertensive rats [2]; [10]): +1 mmHg
- Changes of blood pressure (renal hypertensive rats [2]; [12]): +2 mmHg
- Changes of blood pressure (renal hypertensive rats [2]; [13]): +2 mmHg
- Changes of blood pressure (renal hypertensive rats [2]; [14]): +1 mmHg
- Changes of blood pressure (renal hypertensive rats [2]; [16]): +1 mmHg
- Changes of blood pressure (renal hypertensive rats [2]; [17]): +2 mmHg
- Cholesterol-lowering activity (plasma cholesterol level): 0%

Compound: NCCOP(=O)(O)OCCNC(=O)COc1ccc(Oc2ccc(Cl)cc2)cc1 [Compound (5), 2-[4-(4'-chlorophenoxy)phenoxyacetylamino]ethylphosphoryl ethanolamine]
- inhibition at 313 µg/mL (Renin; [18]): 0%
- inhibition at 313 µg/mL (Renin; [19]): 33%
- inhibition at 313 µg/mL (Renin; [20]): 40%
- inhibition at 625 µg/mL (Renin; [18]): 50%
- inhibition at 625 µg/mL (Renin; [19]): 50%
- inhibition at 625 µg/mL (Renin; [20]): 53%
- inhibition at 1250 µg/mL (Renin; [18]): 75%
- inhibition at 1250 µg/mL (Renin; [19]): 80%
- inhibition at 1250 µg/mL (Renin; [20]): 80%
- inhibition at 2500 µg/mL (Renin; [18]): 100%
- inhibition at 2500 µg/mL (Renin; [19]): 93%
- inhibition at 2500 µg/mL (Renin; [20]): 92%
- inhibition at 1250 µg/mL (Renin; [3]): 78%
- inhibition at 1250 µg/mL (High renin plasma): 56%
- Changes of blood pressure after drug withdrawal (renal hypertensive rats [2]; 1st day after withdrawal): -49 mmHg
- Changes of blood pressure (renal hypertensive rats [2]; [4]): 0 mmHg
- Changes of blood pressure (renal hypertensive rats [2]; [5]): +1 mmHg
- Changes of blood pressure after drug withdrawal (renal hypertensive rats [2]; 2nd day after withdrawal): -34 mmHg
- Changes of blood pressure (renal hypertensive rats [2]; [7]): -9 mmHg
- Changes of blood pressure after drug withdrawal (renal hypertensive rats [2]; 3rd day after withdrawal): -26 mmHg
- Changes of blood pressure (renal hypertensive rats [2]; [8]): -17 mmHg
- Changes of blood pressure (renal hypertensive rats [2]; [9]): -44 mmHg
- Changes of blood pressure after drug withdrawal (renal hypertensive rats [2]; 4th day after withdrawal): -21 mmHg
- Changes of blood pressure (renal hypertensive rats [2]; [10]): -21 mmHg
- Changes of blood pressure (renal hypertensive rats [2]; [11]): -41 mmHg
- Changes of blood pressure after drug withdrawal (renal hypertensive rats [2]; 5th day after withdrawal): -15 mmHg
- Changes of blood pressure (renal hypertensive rats [2]; [12]): -34 mmHg
- Changes of blood pressure (renal hypertensive rats [2]; [13]): -43 mmHg
- Changes of blood pressure after drug withdrawal (renal hypertensive rats [2]; 6th day after withdrawal): -7 mmHg
- Changes of blood pressure (renal hypertensive rats [2]; [14]): -37 mmHg
- Changes of blood pressure (renal hypertensive rats [2]; [15]): -49 mmHg
- Changes of blood pressure (renal hypertensive rats [2]; [16]): -40 mmHg
- Changes of blood pressure (renal hypertensive rats [2]; [17]): -49 mmHg
- Cholesterol-lowering activity (plasma cholesterol level): 48.6%
